# Laboratory results: patent US20250034150A1, “BTK INHIBITORS” (BIOGEN MA INC., priority 2021, published 2025)
# Legend:
# [1] = tested on: CD69 expression on CD19+ B cells in human whole blood; test: In Vitro whole blood CD69 Assay; type: cell-based; settings: B-cell; human heparinized whole blood, anti-human IgD stimulation overnight, CD19+ B cells, flow cytometry; read-out: In Vitro HWB CD69 Assay IC50 Score
# In short: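 Heparinized healthy-donor human whole blood was preincubated with compound (0.1% DMSO) for 30 min at 37 °C. Stimulation used 0.1 µg/mL anti-IgD-dextran or 20 µg/mL rabbit F(ab′)2 anti-IgD for 18–22 h at 37 °C. CD69 on gated CD19+ B cells was then measured by flow cytometry.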
# [2] = target: T1, BTK (Homo sapiens, UniProt Q06187); test: In Vitro BTK Kinase Assay: Btk-PolyGAT-LS Assay; type: biochemical; settings: active BTK enzyme 0.25 nM, polyGAT 100 nM, 30 minutes, TRF readout; read-out: In Vitro BTK Kinase Assay IC50 Score
# T1 construct: purchased Upstate 14-552
# T1 sequence (Q06187 whole entry): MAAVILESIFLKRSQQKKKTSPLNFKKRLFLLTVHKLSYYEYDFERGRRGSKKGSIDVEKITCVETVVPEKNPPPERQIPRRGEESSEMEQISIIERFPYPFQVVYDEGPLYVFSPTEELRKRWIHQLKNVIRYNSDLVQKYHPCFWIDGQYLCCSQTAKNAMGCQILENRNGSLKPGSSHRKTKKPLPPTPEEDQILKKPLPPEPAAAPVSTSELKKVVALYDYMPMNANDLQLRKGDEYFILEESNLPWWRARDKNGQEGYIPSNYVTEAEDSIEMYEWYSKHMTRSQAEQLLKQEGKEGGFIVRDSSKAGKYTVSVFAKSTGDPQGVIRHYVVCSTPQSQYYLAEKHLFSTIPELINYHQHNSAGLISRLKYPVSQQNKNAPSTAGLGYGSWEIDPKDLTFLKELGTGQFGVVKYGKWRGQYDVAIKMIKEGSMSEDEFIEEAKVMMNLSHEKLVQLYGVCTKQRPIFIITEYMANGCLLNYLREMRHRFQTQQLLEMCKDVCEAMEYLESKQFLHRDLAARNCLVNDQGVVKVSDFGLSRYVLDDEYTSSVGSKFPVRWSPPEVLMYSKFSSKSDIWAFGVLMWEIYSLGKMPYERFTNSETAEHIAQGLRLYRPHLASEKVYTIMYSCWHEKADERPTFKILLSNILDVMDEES
# In short: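 Active BTK at 0.25 nM phosphorylated 100 nM fluorescein-polyGAT peptide at 10 μM ATP for 30 minutes. Buffer was Tris pH 7.5 with MgCl2, DTT, Triton X-100 and casein, and reactions were stopped with EDTA. Phospho-peptide was detected by Tb-PY20 antibody TR-FRET, and IC50 came from a four-parameter fit normalized to DMSO and EDTA controls.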
SMILES,IC50 [1] [nM],IC50 [2] [nM]
"Cn1cc(-c2cn3nccc3c(-c3ccc(CNC(=O)c4coc(C(C)(C)C)n4)c(F)c3F)n2)cn1 [Example 90, 2-(tert-butyl)-N-(2,3-difluoro-4-(6-(1-methyl-1H-pyrazol-4-yl)pyrazolo[1,5-a]pyrazin-4-yl)benzyl)oxazole-4-carboxamide]",< 1000,< 1
"Cn1cc(-c2cn3nccc3c(-c3ccc(CNC(=O)c4ccn(C(C)(C)C)n4)c(F)c3F)n2)cn1 [Example 91, 1-(tert-butyl)-N-(2,3-difluoro-4-(6-(1-methyl-1H-pyrazol-4-yl)pyrazolo[1,5-a]pyrazin-4-yl)benzyl)-1H-pyrazole-3-carboxamide]",1000 to 10000,1 to 10
"Cn1cc(-c2cn3nccc3c(-c3ccc(CNC(=O)c4cnn(C(C)(C)C)n4)c(F)c3F)n2)cn1 [Example 92, 2-(tert-butyl)-N-(2,3-difluoro-4-(6-(1-methyl-1H-pyrazol-4-yl)pyrazolo[1,5-a]pyrazin-4-yl)benzyl)-2H-1,2,3-triazole-4-carboxamide]",< 1000,< 1
"Cn1cc(-c2cn3nccc3c(-c3ccc(CNC(=O)c4cn(C(C)(C)C)nn4)c(F)c3F)n2)cn1 [Example 93, 1-(tert-butyl)-N-(2,3-difluoro-4-(6-(1-methyl-1H-pyrazol-4-yl)pyrazolo[1,5-a]pyrazin-4-yl)benzyl)-1H-1,2,3-triazole-4-carboxamide]",< 1000,< 1
"Cn1cc(-c2cn3nccc3c(-c3cc(F)c(CNC(=O)c4nc(C(C)(C)C)no4)cc3F)n2)cn1 [Example 94, 3-(tert-butyl)-N-(2,5-difluoro-4-(6-(1-methyl-1H-pyrazol-4-yl)pyrazolo[1,5-a]pyrazin-4-yl)benzyl)-1,2,4-oxadiazole-5-carboxamide]",< 1000,< 1
"Cn1cc(-c2cn3nccc3c(-c3cc(F)c(CNC(=O)c4coc(C(C)(C)C)n4)cc3F)n2)cn1 [Example 95, 2-(tert-butyl)-N-(2,5-difluoro-4-(6-(1-methyl-1H-pyrazol-4-yl)pyrazolo[1,5-a]pyrazin-4-yl)benzyl)oxazole-4-carboxamide]",1000 to 10000,1 to 10
"Cn1cc(-c2cn3nccc3c(-c3cc(F)c(CNC(=O)c4cnn(C(C)(C)C)n4)cc3F)n2)cn1 [Example 97, 2-(tert-butyl)-N-(2,5-difluoro-4-(6-(1-methyl-1H-pyrazol-4-yl)pyrazolo[1,5-a]pyrazin-4-yl)benzyl)-2H-1,2,3-triazole-4-carboxamide]",1000 to 10000,1 to 10
"Cn1cc(-c2cn3nccc3c(-c3cc(F)c(CNC(=O)c4cn(C(C)(C)C)nn4)cc3F)n2)cn1 [Example 98, 1-(tert-butyl)-N-(2,5-difluoro-4-(6-(1-methyl-1H-pyrazol-4-yl)pyrazolo[1,5-a]pyrazin-4-yl)benzyl)-1H-1,2,3-triazole-4-carboxamide]",1000 to 10000,1 to 10
"Cn1cc(-c2cn3nccc3c(-c3cc(F)c(CNC(=O)c4nnn(C(C)(C)C)n4)cc3F)n2)cn1 [Example 99, 2-(tert-butyl)-N-(2,5-difluoro-4-(6-(1-methyl-1H-pyrazol-4-yl)pyrazolo[1,5-a]pyrazin-4-yl)benzyl)-2H-tetrazole-5-carboxamide]",< 1000,< 1
"Cn1cc(-c2cn3nccc3c(-c3ccc(CNC(=O)c4nc(C(C)(C)C)no4)c(C(F)F)c3)n2)cn1 [Example 100, 3-(tert-butyl)-N-(2-(difluoromethyl)-4-(6-(1-methyl-1H-pyrazol-4-yl)pyrazolo[1,5-a]pyrazin-4-yl)benzyl)-1,2,4-oxadiazole-5-carboxamide]",< 1000,< 1
"Cn1cc(-c2cn3nccc3c(-c3ccc(CNC(=O)c4coc(C(C)(C)C)n4)c(C(F)F)c3)n2)cn1 [Example 101, 2-(tert-butyl)-N-(2-(difluoromethyl)-4-(6-(1-methyl-1H-pyrazol-4-yl)pyrazolo[1,5-a]pyrazin-4-yl)benzyl)oxazole-4-carboxamide]",1000 to 10000,1 to 10
"Cn1cc(-c2cn3nccc3c(-c3ccc(CNC(=O)c4nnc(C(C)(C)C)o4)c(C(F)F)c3)n2)cn1 [Example 102, 5-(tert-butyl)-N-(2-(difluoromethyl)-4-(6-(1-methyl-1H-pyrazol-4-yl)pyrazolo[1,5-a]pyrazin-4-yl)benzyl)-1,3,4-oxadiazole-2-carboxamide]",< 1000,< 1
"Cn1cc(-c2cn3nccc3c(-c3ccc(CNC(=O)c4cnn(C(C)(C)C)n4)c(C(F)F)c3)n2)cn1 [Example 104, 2-(tert-butyl)-N-(2-(difluoromethyl)-4-(6-(1-methyl-1H-pyrazol-4-yl)pyrazolo[1,5-a]pyrazin-4-yl)benzyl)-2H-1,2,3-triazole-4-carboxamide]",1000 to 10000,< 1
"Cn1cc(-c2cn3nccc3c(-c3ccc(CNC(=O)c4cn(C(C)(C)C)nn4)c(C(F)F)c3)n2)cn1 [Example 105, 1-(tert-butyl)-N-(2-(difluoromethyl)-4-(6-(1-methyl-1H-pyrazol-4-yl)pyrazolo[1,5-a]pyrazin-4-yl)benzyl)-1H-1,2,3-triazole-4-carboxamide]",< 1000,< 1
"Cn1cc(-c2cn3nccc3c(-c3ccc(CNC(=O)c4nnn(C(C)(C)C)n4)c(C(F)F)c3)n2)cn1 [Example 106, 2-(tert-butyl)-N-(2-(difluoromethyl)-4-(6-(1-methyl-1H-pyrazol-4-yl)pyrazolo[1,5-a]pyrazin-4-yl)benzyl)-2H-tetrazole-5-carboxamide]",< 1000,< 1
"Cn1cc(-c2cn3nccc3c(-c3ccc(CNC(=O)c4cnn(C(C)(C)C)c4)c(C(F)F)c3)n2)cn1 [Example 107, 1-(tert-butyl)-N-(2-(difluoromethyl)-4-(6-(1-methyl-1H-pyrazol-4-yl)pyrazolo[1,5-a]pyrazin-4-yl)benzyl)-1H-pyrazole-4-carboxamide]",< 1000,< 1
"Cn1cc(-c2cn3nccc3c(-c3ccc(CNC(=O)c4nc(C(C)(C)C)no4)cc3F)n2)cn1 [Example 108, 3-(tert-butyl)-N-(3-fluoro-4-(6-(1-methyl-1H-pyrazol-4-yl)pyrazolo[1,5-a]pyrazin-4-yl)benzyl)-1,2,4-oxadiazole-5-carboxamide]",< 1000,< 1
Cn1cc(-c2cn3nccc3c(-c3ccc(CNC(=O)c4coc(C(C)(C)C)n4)cc3F)n2)cn1 [Example 109],1000 to 10000,1 to 10
"Cn1cc(-c2cn3nccc3c(-c3ccc(CNC(=O)c4nc(C(C)(C)C)co4)cc3F)n2)cn1 [Example 110, 4-(tert-butyl)-N-(3-fluoro-4-(6-(1-methyl-1H-pyrazol-4-yl)pyrazolo[1,5-a]pyrazin-4-yl)benzyl)oxazole-2-carboxamide]",1000 to 10000,1 to 10
"Cn1cc(-c2cn3nccc3c(-c3ccc(CNC(=O)c4cn(C(C)(C)C)nn4)cc3F)n2)cn1 [Example 112, 1-(tert-butyl)-N-(3-fluoro-4-(6-(1-methyl-1H-pyrazol-4-yl)pyrazolo[1,5-a]pyrazin-4-yl)benzyl)-1H-1,2,3-triazole-4-carboxamide]",1000 to 10000,1 to 10
"Cn1cc(-c2cn3nccc3c(-c3ccc(CNC(=O)c4cnn(C(C)(C)C)n4)cc3F)n2)cn1 [Example 113, 2-(tert-butyl)-N-(3-fluoro-4-(6-(1-methyl-1H-pyrazol-4-yl)pyrazolo[1,5-a]pyrazin-4-yl)benzyl)-2H-1,2,3-triazole-4-carboxamide]",1000 to 10000,1 to 10
"Cn1cc(-c2cn3nccc3c(-c3ccc(CNC(=O)c4nnn(C(C)(C)C)n4)cc3F)n2)cn1 [Example 114, 2-(tert-butyl)-N-(3-fluoro-4-(6-(1-methyl-1H-pyrazol-4-yl)pyrazolo[1,5-a]pyrazin-4-yl)benzyl)-2H-tetrazole-5-carboxamide]",< 1000,< 1
"Cn1cc(-c2cn3nccc3c(-c3ccc(CNC(=O)c4nnn(C(C)(C)C)n4)nc3)n2)cn1 [Example 115, 2-(tert-butyl)-N-((5-(6-(1-methyl-1H-pyrazol-4-yl)pyrazolo[1,5-a]pyrazin-4-yl)pyridin-2-yl)methyl)-2H-tetrazole-5-carboxamide]",1000 to 10000,1 to 10
"Cn1cc(-c2cn3nccc3c(-c3ccc(CNC(=O)c4noc(C(C)(C)C)n4)nc3)n2)cn1 [Example 116, 5-(tert-butyl)-N-((5-(6-(1-methyl-1H-pyrazol-4-yl)pyrazolo[1,5-a]pyrazin-4-yl)pyridin-2-yl)methyl)-1,2,4-oxadiazole-3-carboxamide]",1000 to 10000,1 to 10
"Cn1cc(-c2cn3nccc3c(-c3ccc(CNC(=O)c4noc(C(C)(C)C)n4)c(F)c3)n2)cn1 [Example 117, 5-(tert-butyl)-N-(2-fluoro-4-(6-(1-methyl-1H-pyrazol-4-yl)pyrazolo[1,5-a]pyrazin-4-yl)benzyl)-1,2,4-oxadiazole-3-carboxamide]",< 1000,< 1
"CN1CCN(c2cn3nccc3c(-c3ccc(CNC(=O)c4nc(C(C)(C)C)no4)c(F)c3)n2)CC1 [Example 118, 3-(tert-butyl)-N-(2-fluoro-4-(6-(4-methylpiperazin-1-yl)pyrazolo[1,5-a]pyrazin-4-yl)benzyl)-1,2,4-oxadiazole-5-carboxamide]",1000 to 10000,1 to 10
"Cc1cc(-c2nc(N3CCOCC3)cn3nccc23)ccc1CNC(=O)c1cn(C(C)(C)C)nn1 [Example 120, 1-(tert-butyl)-N-(2-methyl-4-(6-morpholinopyrazolo[1,5-a]pyrazin-4-yl)benzyl)-1H-1,2,3-triazole-4-carboxamide]",1000 to 10000,1 to 10
